# Like-named read-outs stand apart in the source and are kept apart here.
# Experiments:
# [1] = system: CYP3A4/5; assay: Time-dependent inhibition; assay type: in vitro ADME, human; conditions: HLM; for TDI of CYP3A after 30-min preincubation: incubation concentration ≥ 99.5 µM
# [2] = molecular target: T1, CYP2C19 (Homo sapiens, UniProt P33261); assay type: in vitro ADME; conditions: HLM
# [3] = system: CYP1A2/2B6/2C19/3A; assay: Reversible inhibition in human liver microsomes; assay type: in vitro ADME; conditions: HLM
# [4] = molecular target: T1, CYP2C19
# [5] = system: pregnane X receptor (PXR) pathway; assay: Induction via the pregnane X receptor pathway; assay type: in vitro ADME; conditions: data on file
# [6] = Safety; assay type: in vivo, human; conditions: coadministered with midazolam, caffeine, efavirenz, omeprazole or oral contraceptives; healthy adult participants
# [7] = system: CYP3A; assay: Oral contraceptive DDI study; assay type: in vivo, human
# [8] = system: CYP2B6; conditions: after multiple doses of abrocitinib 200 mg QD
# [9] = after administration as tablet; cited from earlier work
# [10] = system: CYP3A; assay: Midazolam DDI study
# [11] = system: CYP2C19; conditions: cited from earlier work
# [12] = system: CYP1A2; conditions: with abrocitinib 200 mg QD
# [13] = abrocitinib 200 mg QD with omeprazole 10 mg single dose
# [14] = after multiple doses of abrocitinib 200 mg QD
# [15] = multiple doses of abrocitinib 200 mg QD, Day 7 vs midazolam alone
# [16] = with abrocitinib 200 mg QD on Day 2 vs midazolam alone
# [17] = with multiple doses of abrocitinib vs LN alone
# T1 sequence (P33261 whole entry): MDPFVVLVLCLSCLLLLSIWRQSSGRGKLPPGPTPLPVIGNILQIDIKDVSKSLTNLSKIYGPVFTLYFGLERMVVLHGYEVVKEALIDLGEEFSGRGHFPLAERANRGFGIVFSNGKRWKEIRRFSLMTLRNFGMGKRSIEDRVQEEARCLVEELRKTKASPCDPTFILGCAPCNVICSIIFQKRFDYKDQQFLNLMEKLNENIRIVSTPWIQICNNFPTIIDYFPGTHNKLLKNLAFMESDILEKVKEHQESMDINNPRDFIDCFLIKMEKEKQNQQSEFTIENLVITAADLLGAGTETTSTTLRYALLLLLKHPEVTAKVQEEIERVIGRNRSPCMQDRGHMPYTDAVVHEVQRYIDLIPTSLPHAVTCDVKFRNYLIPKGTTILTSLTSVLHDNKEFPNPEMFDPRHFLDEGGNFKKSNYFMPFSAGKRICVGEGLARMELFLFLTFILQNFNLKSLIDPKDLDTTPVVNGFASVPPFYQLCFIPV
compound,measurement,setting,value
CC(O)CS(=O)(=O)N[C@H]1C[C@@H](N(C)c2ncnc3[nH]ccc23)C1 (some centres unmarked) [M2],TDI of CYP3A in the absence of NADPH,[1],weak TDI
same,TDI of CYP3A after 30-min preincubation,[1],weak TDI
same,TDI of CYP3A in the presence of NADPH,[1],weak TDIs
same,TDI of CYP2C19 in the absence of NADPH,[2],weak TDI
same,TDI of CYP2C19 in the presence of NADPH,[2],weak TDIs
same,Reversible inhibition of CYP1A2/2B6/2C19/3A,[3],no reversible inhibition
"COc1ccc2[nH]c([S+]([O-])Cc3ncc(C)c(OC)c3C)nc2c1 (centres unmarked) [Omeprazole, omeprazole]",Increase of omeprazole AUCinf,[4]; [13],approximately 2.9 fold
same,Increase of omeprazole Cmax,[4]; [13],~2.3 fold
same,Increase of omeprazole Cmax,[4]; with multiple doses of abrocitinib 200 mg QD,~134%
CN(c1ncnc2[nH]ccc12)[C@H]1C[C@@H](NS(=O)(=O)CCCO)C1 [M1],TDI of CYP3A in the absence of NADPH,[1],weak TDI
same,TDI of CYP3A after 30-min preincubation,[1],weak TDI
same,TDI of CYP3A in the presence of NADPH,[1],weak TDIs
same,TDI of CYP2C19 in the absence of NADPH,[2],weak TDI
same,TDI of CYP2C19 in the presence of NADPH,[2],weak TDIs
same,Reversible inhibition of CYP1A2/2B6/2C19/3A,[3],no reversible inhibition
"CCCS(=O)(=O)N[C@H]1C[C@@H](N(C)c2ncnc3[nH]ccc23)C1 [Abrocitinib, N-{cis-3-[Methyl(7H-pyrrolo[2,3-d]pyrimidin-4-yl)amino]cyclobutyl}propane-1-sulfo namide]",Induction via the PXR pathway,[5],weak signal
same,Overall safety and tolerability,[6],generally safe and well tolerated
same,Effect of abrocitinib on the pharmacokinetics of OCs,[7]; [14],lack of effect
same,Effect of abrocitinib on the pharmacokinetics of efavirenz,[8],lack of effect
same,Median Tmax of abrocitinib,[9],≤ 1 h
same,Effect of abrocitinib on the pharmacokinetics of midazolam,[10]; [14],lack of effect
same,Share of abrocitinib metabolism by CYP2C19,[11],approximately 53%
"Cc1ncc2n1-c1ccc(Cl)cc1C(c1ccccc1F)=NC2 [Midazolam, midazolam]",Decrease of adjusted geometric mean AUCinf of midazolam,[10]; [15],approximately 7.7%
same,Decrease of adjusted geometric mean Cmax of midazolam,[10]; [15],~6.5%
same,Decrease of adjusted geometric mean AUCinf of midazolam,[10]; [16],approximately 15.7%
same,Decrease of adjusted geometric mean Cmax of midazolam,[10]; [16],~13.7%
"Cn1c(=O)c2c(ncn2C)n(C)c1=O [Caffeine, caffeine]",Increase of caffeine AUCinf,[12],1.4 fold
"C#C[C@]1(O)CC[C@H]2[C@@H]3CCC4=CC(=O)CC[C@@H]4[C@H]3CC[C@@]21CC [Levonorgestrel, levonorgestrel]",Change of adjusted geometric mean AUClast,[7]; [17],did not change
same,Decrease of adjusted geometric mean Cmax,[7]; [17],approximately 14%

# Source: paper PMC11052784 (European Journal of Drug Metabolism and Pharmacokinetics, 2024)
